{"source": "ChEMBL document CHEMBL5335772", "about": "“EGCG adjuvant chemotherapy: Current status and future perspectives” (Eur J Med Chem, 2023)", "key": {"[1]": {"test_system": "MCF7", "test": "Induction of apoptosis in human MCF7 cells in presence of EGCG at 50 uM"}, "[2]": {"test_system": "DLD-1", "test": "Induction of apoptosis in human DLD-1 cells in presence of EGCG at 50 uM", "assay_type": "functional, cell-based"}, "[3]": {"test_system": "DLD-1", "test": "Antiproliferative activity against human DLD-1 cells assessed as reduction in cell growth incubated for 24 hrs by MTT assay", "assay_type": "functional, cell-based", "conditions": "DLD-1, 24 h"}, "[4]": {"test_system": "ADR5000 cell line", "test": "Antiproliferative activity against human CEM/ADR5000 cells assessed as reduction in cell viability incubated for 48 hrs by MTT assay", "assay_type": "functional, cell-based", "conditions": "ADR5000, 48 h"}, "[5]": {"test_system": "ADR5000 cell line", "test": "Induction of apoptosis in human CEM/ADR5000 cells in presence of EGCG at 20 uM", "assay_type": "functional, cell-based"}, "[6]": {"test_system": "BEL-7404 tumor cell line", "test": "Induction of apoptosis in human BEL-7404 tumor cell line in presence of EGCG at 30.5 uM", "assay_type": "functional, cell-based"}, "[7]": {"test_system": "BEL-7404 tumor cell line", "test": "Antiproliferative activity against human BEL-7404 tumor cell line assessed as inhibition of cell proliferation incubated for 72 hrs by MTT assay", "assay_type": "functional, cell-based", "conditions": "BEL-7404, 72 h"}}, "data": [{"smiles": "CC/C(=C(\\c1ccccc1)c1ccc(OCCN(C)C)cc1)c1ccccc1", "note": "[TAMOXIFEN]", "values": [{"measurement": "IC50", "setting": "[1]", "result": 5.8, "unit": "µM"}]}, {"smiles": "O=c1[nH]cc(F)c(=O)[nH]1", "note": "[FLUOROURACIL]", "values": [{"measurement": "IC50", "setting": "[2]", "result": 11, "unit": "µM"}, {"measurement": "IC50", "setting": "[3]", "result": 150, "unit": "µM"}]}, {"smiles": "COc1cccc2c1C(=O)c1c(O)c3c(c(O)c1C2=O)C[C@@](O)(C(=O)CO)C[C@@H]3O[C@H]1C[C@H](N)[C@H](O)[C@H](C)O1", "note": "[DOXORUBICIN]", "values": [{"measurement": "IC50", "setting": "[4]", "result": 88.9, "unit": "µM"}, {"measurement": "IC50", "setting": "[5]", "result": 29.9, "unit": "µM"}, {"measurement": "IC50", "setting": "[6]", "result": 3.28, "unit": "µM"}, {"measurement": "IC50", "setting": "[7]", "result": 1.62, "unit": "µM"}]}]}
